Entries after “also recorded” stand apart in the source; their conditions may differ. Where two headings read alike, the source gives them in different places.
Key:
HIV-RT = molecular target: T1, HIV-RT (Human immunodeficiency virus type 1 group M subtype B, UniProt P03366); format: biochemical; conditions: for effet inhibiteur sur la HIV1-RT: qualitative, autoradiogram, aurothiopropanol 0 à 2 mM (Figure 7), AZT 0,1 »M à 1 mM (Figure 8)
T1 construct: Transcriptase inverse: l'enzyme active du point de vue enzymatique, purifiée, clonée, a été préparée dans Escherichia coli; made in house; host or cells: Escherichia coli
Description: (§1) Transcriptase inverse: l'enzyme active du point de vue enzymatique, purifiée, clonée, a été préparée dans Escherichia coli à l'aide de la technique précédemment décrite par Hizi A., McGill C., Hugues G., Proc. Natl. Acad. Sci. USA 85, 1218-1222 (1988). Le dosage de la R.T. a été effectuée à l'aide de matrice d'ADN (au hasard et avec des séquences HIV) et de primer(s) marqué(s) (brins d'initiation) par radioactivité. Après formation de complexes entre la matrice d'ADN et les primers, la R.T. a été ajoutée et incubée. Diverses concentrations d'inhibiteur ont été ajoutées soit avant soie après que le, ou les complexes, aient été formés. L'initiation et l'élongation de la chaîne ont été étudiées à l'aide de P.A.G.E. à 20% [Shane D.L., Goodman M.F., Echols N.A., Nucleic Acids Res. 16, 1218-1222 (1988] et les produits analysés par autoradiographie. Différentes matrices et conditions ont été utilisées pour distinguer ces fonctions. En outre, de la R.T. disponible dans le commerce provenant du virus de myéloblastose aviaire a été également utilisée.
(§2) Le dosage de l'effet des inhibiteurs sur la R.T. était le suivant: • A) On prépare un mélange réactionnel de […] contenant: • . ADN matrice 10⁻⁸M • . ADN primer 4 x 10⁻¹⁰M/ADN primer 5' [³²P] • . 2 »l de tampon HIV-RT ([10x] (500 mM Tris-HCl • . pH 7,8; 60 mM MgCl₂; 10 mM dithiothréitol; 500 mM KCl); et • . de l'eau bidistillée pendant […] à 37°C. • B) On ajoute 1 unité de HIV-RT (une unité correspond à l'activité enzymatique qui incorpore 1 nmol de [³H] TMP en produit insoluble dans l'acide en 10 mn à 37°C avec du poly(A)-(dT)₁₅ comme substrat) pendant 10 min à 37°C. • C) On ajoute un mélange de désoxy nucléotide triphosphates (dXTPs) contenant 0,25 mM de chaque dXTP pour un volume de mélange final de 20 »l pendant 5 minutes à 37°C. • D) Pour tester le ou les inhibiteurs, diverses concentrations de ces produits (sous un volume constant) sont ajoutées (selon Etape B) au mélange des dXTPs. Le mélange réactionnel est incubé à 37°C pendant […]. • E) On fait cesser la réaction par de l'EDTA 10 nM dans le formamide à 90%. • F) Des échantillons sont chauffés à 90°C pendant 5 mn et les produits séparés par électrophorèse sur gels de Polyacrylamide à 20% en présence d'urée. • G) Les variations dans l'élongation, la synthèse, etc... sont détectées par autoradiographie et testées par comparaison avec des "témoins" sans inhibiteur.
Le mélange est incubé pendant 5 mn à 37°C. • dans le cas (c) l'enzyme, l'hybride primer-matrice et 2 des 4 désoxy-ribonucléotides sont ajoutés et incubés pendant 5 mn à 37°C.

AMV-RT = experiment: AMV reverse transcriptase inhibition, primer extension, PAGE and autoradiography; format: biochemical, virus de myéloblastose aviaire; conditions: for effet sur la R.T. (AMV): qualitative
Description: as §1, §2

[1] = tested on: glycosylation de gp120 ou gp41; experiment: Effect on viral glycoprotein synthesis (glycosylation) in infected cells; format: cell-based, HIV-1; conditions: for minimal effective concentration: Human immunodeficiency virus 1, read-out: concentration efficace sur la glycosylation
Description: Effets de médicaments sur la synthèse de glycoprotéines: des cellules CEM ou MT-4 ont été infectées par HIV-1; 4 heures après l'infection, une moitié des cellules a été marquées avec [2³H]Man ou [6³H]GlcNAc à 2,5-5,9 »Ci. Les milieux ont été changés et de l'inhibiteur frais (potentiel) et 2,5 »Ci (ou 5 »Ci) de l'isotope approprié ont été ajoutés. Les cellules ont été lysées à trois et sept jours après l'infection et les lysats cellulaires ont été clarifiées par centrifugation à 12 000 g; qp120 et gp41 ont été l'une et l'autre isolées par immunoprécipitation sur colonnes et les produits, analysés sur gels de polyacrylamide à 12% et fluorographie [Kumarasamy R & Blough H.A., Biochem. Biophys. Res. Commun. 109, 1108-1115 (1982)]. Les virus ont été récoltés et purifiés par centrifugation à vitesse contrôlée sur gradients préformés de citrate de sodium ou métrazamide à 5-40%, et analysés de façon similaire.

[2] = Cytotoxicity (cell doubling time, trypan blue exclusion); format: cell-based; conditions: human, alex and mt-4 cells; cytotoxic at concentrations exceeding the value; read-out: concentrations cytotoxiques
Description: (§3) Il a également été montré que les composés de l'invention sont moins toxiques que leurs analogues de base, en mesurant, à l'aide du microscope photonique, le temps de duplication cellulaire et l'exclusion du bleu trypan.

cellules ALEX et MT-4 = experiment: as above; format: cell-based
Description: as §3

[3] = molecular target: T2, DNA polymérase alpha de placenta humain (Homo sapiens, UniProt P09884); experiment: Effect on human DNA polymerase alpha; format: biochemical
T2 construct: la DNA polymérase alpha de placenta humain; tissue Dr Olga Lavrik, Novosibirsk (gift); host or cells: human placenta
T2 sequence (P09884 whole entry): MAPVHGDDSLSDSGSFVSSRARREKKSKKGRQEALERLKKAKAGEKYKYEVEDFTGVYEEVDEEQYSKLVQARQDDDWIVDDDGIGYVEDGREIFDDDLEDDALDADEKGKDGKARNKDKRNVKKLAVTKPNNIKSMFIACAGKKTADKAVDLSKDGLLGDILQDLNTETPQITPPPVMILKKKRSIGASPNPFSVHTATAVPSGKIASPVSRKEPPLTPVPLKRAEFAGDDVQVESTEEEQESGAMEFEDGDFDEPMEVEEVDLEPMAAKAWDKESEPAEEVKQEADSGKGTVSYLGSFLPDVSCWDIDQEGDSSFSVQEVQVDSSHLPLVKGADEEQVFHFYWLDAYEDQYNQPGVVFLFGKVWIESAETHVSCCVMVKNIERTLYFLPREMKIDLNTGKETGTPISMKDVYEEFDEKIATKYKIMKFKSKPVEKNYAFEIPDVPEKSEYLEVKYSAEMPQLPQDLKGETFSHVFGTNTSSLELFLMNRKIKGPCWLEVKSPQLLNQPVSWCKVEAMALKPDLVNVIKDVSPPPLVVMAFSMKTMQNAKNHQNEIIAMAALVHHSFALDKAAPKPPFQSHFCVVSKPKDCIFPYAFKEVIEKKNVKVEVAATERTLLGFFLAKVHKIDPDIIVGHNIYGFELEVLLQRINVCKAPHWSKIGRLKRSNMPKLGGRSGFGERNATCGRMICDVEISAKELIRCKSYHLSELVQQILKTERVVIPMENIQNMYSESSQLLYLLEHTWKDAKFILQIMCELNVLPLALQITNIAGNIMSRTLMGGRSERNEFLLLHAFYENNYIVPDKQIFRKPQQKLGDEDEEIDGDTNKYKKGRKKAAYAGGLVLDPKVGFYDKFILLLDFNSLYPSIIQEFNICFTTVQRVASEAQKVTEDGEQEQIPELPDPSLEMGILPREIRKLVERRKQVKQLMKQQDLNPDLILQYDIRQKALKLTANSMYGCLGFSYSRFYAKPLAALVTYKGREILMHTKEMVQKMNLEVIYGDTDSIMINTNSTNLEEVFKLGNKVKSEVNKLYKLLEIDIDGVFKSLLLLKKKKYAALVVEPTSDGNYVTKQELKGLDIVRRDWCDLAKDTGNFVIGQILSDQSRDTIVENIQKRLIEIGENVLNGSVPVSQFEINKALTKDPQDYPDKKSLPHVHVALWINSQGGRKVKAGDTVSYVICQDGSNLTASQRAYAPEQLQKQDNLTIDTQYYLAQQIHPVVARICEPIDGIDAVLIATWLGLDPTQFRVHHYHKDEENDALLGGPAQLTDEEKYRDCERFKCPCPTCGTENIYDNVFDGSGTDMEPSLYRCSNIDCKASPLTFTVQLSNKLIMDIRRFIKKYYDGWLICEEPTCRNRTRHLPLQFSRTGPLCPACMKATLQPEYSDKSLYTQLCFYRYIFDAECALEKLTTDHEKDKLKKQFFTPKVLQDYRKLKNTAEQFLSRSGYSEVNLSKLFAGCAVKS
T2 sequence (Q14181 whole entry partner): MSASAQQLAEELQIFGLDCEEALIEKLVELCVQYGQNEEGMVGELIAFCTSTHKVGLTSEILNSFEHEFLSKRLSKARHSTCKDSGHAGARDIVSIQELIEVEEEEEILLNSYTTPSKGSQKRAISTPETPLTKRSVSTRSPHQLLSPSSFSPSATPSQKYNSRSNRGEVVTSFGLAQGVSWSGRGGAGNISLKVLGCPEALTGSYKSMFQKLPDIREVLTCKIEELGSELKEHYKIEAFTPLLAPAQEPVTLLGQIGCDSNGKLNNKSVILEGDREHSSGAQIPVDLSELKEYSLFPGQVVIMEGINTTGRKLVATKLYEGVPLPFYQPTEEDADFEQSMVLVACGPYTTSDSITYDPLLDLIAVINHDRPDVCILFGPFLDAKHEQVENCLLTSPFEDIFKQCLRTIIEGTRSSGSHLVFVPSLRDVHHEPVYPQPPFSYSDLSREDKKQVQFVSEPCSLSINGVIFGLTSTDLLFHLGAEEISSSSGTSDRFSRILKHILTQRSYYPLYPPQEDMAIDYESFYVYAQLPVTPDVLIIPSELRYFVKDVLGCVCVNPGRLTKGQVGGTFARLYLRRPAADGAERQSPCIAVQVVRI
T2 sequence (P49642 whole entry partner): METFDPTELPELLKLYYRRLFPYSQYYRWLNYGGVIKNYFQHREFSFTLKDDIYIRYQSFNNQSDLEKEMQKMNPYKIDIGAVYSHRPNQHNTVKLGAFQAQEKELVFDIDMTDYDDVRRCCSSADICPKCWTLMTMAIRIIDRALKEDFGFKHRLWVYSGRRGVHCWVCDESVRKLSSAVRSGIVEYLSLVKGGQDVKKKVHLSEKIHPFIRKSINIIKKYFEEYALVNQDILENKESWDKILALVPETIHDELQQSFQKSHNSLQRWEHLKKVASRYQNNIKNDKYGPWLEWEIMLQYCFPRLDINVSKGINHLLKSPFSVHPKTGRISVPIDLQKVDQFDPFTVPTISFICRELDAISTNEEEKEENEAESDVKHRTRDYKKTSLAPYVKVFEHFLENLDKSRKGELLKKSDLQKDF
T2 sequence (P49643 whole entry partner): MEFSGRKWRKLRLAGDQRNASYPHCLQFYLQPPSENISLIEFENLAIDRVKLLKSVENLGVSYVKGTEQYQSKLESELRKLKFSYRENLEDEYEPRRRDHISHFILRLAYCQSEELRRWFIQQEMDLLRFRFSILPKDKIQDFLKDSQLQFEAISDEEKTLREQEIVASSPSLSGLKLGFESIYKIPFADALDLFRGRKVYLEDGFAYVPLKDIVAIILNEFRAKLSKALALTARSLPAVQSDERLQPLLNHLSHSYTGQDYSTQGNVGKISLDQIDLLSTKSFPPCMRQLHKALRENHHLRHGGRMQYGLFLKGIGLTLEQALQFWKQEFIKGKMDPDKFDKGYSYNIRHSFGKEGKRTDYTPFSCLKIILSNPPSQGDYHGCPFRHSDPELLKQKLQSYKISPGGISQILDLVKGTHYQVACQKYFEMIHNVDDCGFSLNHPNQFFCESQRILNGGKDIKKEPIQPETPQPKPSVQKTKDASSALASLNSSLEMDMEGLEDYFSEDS

[4] = molecular target: T3, DNA polymérase alpha de foie de rat (Rattus norvegicus, UniProt O89042); experiment: Effect on rat DNA polymerase alpha; format: biochemical; conditions: partially purified enzyme; sensitive only above the value
T3 construct: la DNA polymérase alpha de foie de rat partiellement purifiée; tissue Dr A M de Recondo, Villejuif (gift); host or cells: rat liver
T3 sequence (O89042 1-1451): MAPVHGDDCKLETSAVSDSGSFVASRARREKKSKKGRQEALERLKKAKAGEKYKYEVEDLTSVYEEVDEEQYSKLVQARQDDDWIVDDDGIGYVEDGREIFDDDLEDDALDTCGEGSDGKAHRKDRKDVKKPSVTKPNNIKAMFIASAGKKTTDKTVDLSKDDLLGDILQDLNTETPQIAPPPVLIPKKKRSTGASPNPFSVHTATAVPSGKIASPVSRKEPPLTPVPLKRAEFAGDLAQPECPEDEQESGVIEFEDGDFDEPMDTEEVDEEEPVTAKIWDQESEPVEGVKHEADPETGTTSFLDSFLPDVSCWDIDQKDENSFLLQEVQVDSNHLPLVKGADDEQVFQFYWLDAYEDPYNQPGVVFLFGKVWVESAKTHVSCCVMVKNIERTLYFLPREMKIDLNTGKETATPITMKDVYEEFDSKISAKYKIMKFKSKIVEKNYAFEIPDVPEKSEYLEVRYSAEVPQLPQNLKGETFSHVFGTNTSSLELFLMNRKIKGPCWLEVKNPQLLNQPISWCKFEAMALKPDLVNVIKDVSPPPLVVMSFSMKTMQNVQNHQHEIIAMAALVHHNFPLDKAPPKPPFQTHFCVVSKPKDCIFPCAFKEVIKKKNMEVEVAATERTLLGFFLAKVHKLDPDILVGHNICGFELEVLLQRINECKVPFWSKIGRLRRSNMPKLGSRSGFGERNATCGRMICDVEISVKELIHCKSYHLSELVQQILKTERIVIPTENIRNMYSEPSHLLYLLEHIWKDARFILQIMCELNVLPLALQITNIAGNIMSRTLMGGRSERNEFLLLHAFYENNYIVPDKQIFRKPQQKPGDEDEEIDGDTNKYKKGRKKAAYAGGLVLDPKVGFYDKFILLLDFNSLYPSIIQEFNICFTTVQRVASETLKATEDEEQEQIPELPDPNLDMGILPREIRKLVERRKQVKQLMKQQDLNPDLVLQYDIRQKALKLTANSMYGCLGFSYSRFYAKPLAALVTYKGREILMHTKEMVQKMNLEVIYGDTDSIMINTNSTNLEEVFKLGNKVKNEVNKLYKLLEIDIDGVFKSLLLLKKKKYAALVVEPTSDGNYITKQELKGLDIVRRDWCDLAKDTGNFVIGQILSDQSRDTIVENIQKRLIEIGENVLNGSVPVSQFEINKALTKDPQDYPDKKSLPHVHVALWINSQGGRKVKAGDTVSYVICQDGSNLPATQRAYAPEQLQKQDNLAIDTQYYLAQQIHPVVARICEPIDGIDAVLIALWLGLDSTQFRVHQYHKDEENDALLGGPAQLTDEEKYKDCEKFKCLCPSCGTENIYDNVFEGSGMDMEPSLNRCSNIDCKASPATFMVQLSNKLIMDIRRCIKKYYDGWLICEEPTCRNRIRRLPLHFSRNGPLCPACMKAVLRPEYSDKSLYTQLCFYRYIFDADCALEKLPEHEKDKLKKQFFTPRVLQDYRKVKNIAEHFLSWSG

[5] = molecular target: T4, DNA polymérase I de Escherichia coli (Escherichia coli, UniProt P00582); experiment: Effect on E. coli DNA polymerase I; format: biochemical
T4 construct: purchased BRL
T4 sequence (P00582 whole entry): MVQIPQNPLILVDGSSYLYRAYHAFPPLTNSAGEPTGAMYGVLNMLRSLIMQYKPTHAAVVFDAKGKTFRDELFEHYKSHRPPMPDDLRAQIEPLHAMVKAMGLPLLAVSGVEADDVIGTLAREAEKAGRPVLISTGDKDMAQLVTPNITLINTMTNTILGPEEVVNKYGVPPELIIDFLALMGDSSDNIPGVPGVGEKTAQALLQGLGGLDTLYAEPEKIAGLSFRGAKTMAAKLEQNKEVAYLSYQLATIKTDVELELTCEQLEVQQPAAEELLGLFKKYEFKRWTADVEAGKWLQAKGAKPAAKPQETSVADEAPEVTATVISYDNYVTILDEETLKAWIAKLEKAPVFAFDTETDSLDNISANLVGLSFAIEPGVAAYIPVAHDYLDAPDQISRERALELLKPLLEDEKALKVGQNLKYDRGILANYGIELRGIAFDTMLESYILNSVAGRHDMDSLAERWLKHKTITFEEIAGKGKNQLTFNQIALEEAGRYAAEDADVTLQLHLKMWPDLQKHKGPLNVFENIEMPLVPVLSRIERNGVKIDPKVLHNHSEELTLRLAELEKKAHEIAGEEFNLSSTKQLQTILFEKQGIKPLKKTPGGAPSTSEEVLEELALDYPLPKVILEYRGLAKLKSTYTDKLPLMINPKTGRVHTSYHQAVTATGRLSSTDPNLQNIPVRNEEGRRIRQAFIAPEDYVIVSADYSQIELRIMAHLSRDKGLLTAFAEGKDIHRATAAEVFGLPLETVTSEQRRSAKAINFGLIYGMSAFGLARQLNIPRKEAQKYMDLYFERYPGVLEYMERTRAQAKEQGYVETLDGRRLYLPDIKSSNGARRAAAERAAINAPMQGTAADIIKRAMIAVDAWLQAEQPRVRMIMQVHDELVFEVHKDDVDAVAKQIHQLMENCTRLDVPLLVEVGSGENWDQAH

[6] = molecular target: association enzyme-matrice (HIV1-RT / hybride primer-matrice) (Human immunodeficiency virus type 1 group M subtype B, UniProt P03366); conditions: enzyme 0,15 nM à 1nM; aurothioglucose 0,1 »M à 100 »M
Description: On aussi effectué la filtration de l'enzyme et de l'hybride primeur-matrice en présence de concentration croissante de l'aurothioglucose. Les conditions expérimentales sont celles décrites précédemment.

OC[C@H]1O[C@@H](S)[C@H](O)[C@@H](O)[C@@H]1O [1-thioglucose, 1-bêta-D-thioglucose]
effet inhibiteur sur la HIV1-RT (HIV-RT): n'ont pas présenté d'effet | effet inhibiteur sur la HIV1-RT (HIV-RT; listed as 1-bêta-D-thioglucose): aucun effet | effet sur la R.T. (AMV) (AMV-RT): n'ont pas présenté d'effet | activité à l'encontre de la glycosylation de gp120 ou gp41 [1]: actifs | minimal effective concentration [1]: ~0.0035 µM | MCC [2]: > 2 mM | toxicité vis-à-vis des cellules (cellules ALEX et MT-4): trop toxiques

aurothiopropanol
effet inhibiteur sur la HIV1-RT (HIV-RT): inhibition; also recorded: effet inhibiteur

OC[C@H]1O[C@@H]([S][Au])[C@H](O)[C@@H](O)[C@@H]1O [1-aurothioglucose, 1-bêta-D-aurothioglucose]
inhibition en utilisant des matrices d'ARN (HIV-RT; RNA templates compared with DNA templates, Figure 3): résultats comparables | sensibilité de l'enzyme complexée à la matrice (b) et en phase d'élongation (c) (HIV-RT; cases (b) and (c) compared): la même sensibilité | effets combinés de la zidovudine (AZT) et de l'aurothioglucose (HIV-RT; combined with zidovudine (AZT)): additifs et qu'il existe une action synergique | quantité efficace pour bloquer le complexe HIV-R.T.-Substrat (HIV-RT; complexe HIV-R.T.-Substrat à 40 nm, Figure 1): 3 »m | diminution de la constante d'inhibition (Ki) (HIV-RT; free enzyme, case (a), compared with cases (b) and (c)): 33% | activité par rapport à l'AZT triphosphate (HIV-RT; qualitative comparison): considérablement plus actif | effet sur l'élongation des chaînes d'ADN par l'AMV-RT (AMV-RT; Figure 5, lane 2, added after polymerisation of six nucleotides): inhibition de l'élongation de la chaîne | concentrations nécessaires pour bloquer AMV-RT (AMV-RT; compared with HIV-RT, Figure 2): concentrations supérieures | activité inhibitrice sur les DNA polymèrases humaines ([3]; in vitro): activité inhibitrice faible | concentration en drogue à laquelle la polymérase est sensible ([3]; insensitive at concentrations lower than or equal to the value): > 1 mM | concentration en aurothioglucose à laquelle la polymérase est sensible [4]: > 100 µM | inhibition de la DNA-polymérase-1 d'Escherichia Coli ([5]; Figure 6, autoradiogram): inhibition | concentration en aurothioglucose à laquelle la polymérase est sensible ([5]; sensitive above the value): > 50 µM | association enzyme-matrice [6]: affaiblie

Cc1cn([C@H]2C[C@H](N=[N+]=[N-])[C@@H](COP(=O)(O)OP(=O)(O)OP(=O)(O)O)O2)c(=O)[nH]c1=O [AZT phosphorylé, 3'-Azido-DTTP, reference compound]
effet inhibiteur sur la HIV1-RT (HIV-RT): inhibition

OC[C@H]1S[C@@H](O)[C@H](O)[C@@H](O)[C@@H]1O [5-thioglucose, 5-bêta-D-thioglucose]
effet inhibiteur sur la HIV1-RT (HIV-RT): n'ont pas présenté d'effet | effet inhibiteur sur la HIV1-RT (HIV-RT; listed as 5-bêta-D-thioglucose): aucun effet | effet sur la R.T. (AMV) (AMV-RT): n'ont pas présenté d'effet | activité à l'encontre de la glycosylation de gp120 ou gp41 [1]: actifs | minimal effective concentration [1]: ~0.0035 µM | MCC [2]: > 2 mM | toxicité vis-à-vis des cellules (cellules ALEX et MT-4): trop toxiques

— EP0427843B1, “SPECIFIC INHIBITOR FOR RETROVIRUS REVERSE TRANSCRIPTASE, AND ITS APPLICATION AS A MEDICAMENT” (BLOUGH, Herbert A., Dr., priority 1989, dated 1990)
